Assay results as given in publication PMC8001506 (Marine Drugs, 2021).
Where a SMILES comes first, the peptide text is derived from it. Bridges are numbered along the chain shown (N, C = ends).

How the values were obtained:
Experiment in all cases: cell-based
rat α3β4 nAChR = rat α3β4 nAChR (Rattus norvegicus, UniProt P04757+P12392); format: cell-based
rat α6/α3β2β3 nAChR = rat α6/α3β2β3 nAChR (Rattus norvegicus, UniProt P04757+P12390+P12391+P43143)
human α9α10 nAChR = human α9α10 nAChR (Homo sapiens, UniProt Q9GZZ6+Q9UGM1); format: cell-based
rat α2β4 nAChR = rat α2β4 nAChR (Rattus norvegicus, UniProt P12389+P12392); format: cell-based
Sequence of rat α2β4 nAChR (P12389 28-511 limits assumed): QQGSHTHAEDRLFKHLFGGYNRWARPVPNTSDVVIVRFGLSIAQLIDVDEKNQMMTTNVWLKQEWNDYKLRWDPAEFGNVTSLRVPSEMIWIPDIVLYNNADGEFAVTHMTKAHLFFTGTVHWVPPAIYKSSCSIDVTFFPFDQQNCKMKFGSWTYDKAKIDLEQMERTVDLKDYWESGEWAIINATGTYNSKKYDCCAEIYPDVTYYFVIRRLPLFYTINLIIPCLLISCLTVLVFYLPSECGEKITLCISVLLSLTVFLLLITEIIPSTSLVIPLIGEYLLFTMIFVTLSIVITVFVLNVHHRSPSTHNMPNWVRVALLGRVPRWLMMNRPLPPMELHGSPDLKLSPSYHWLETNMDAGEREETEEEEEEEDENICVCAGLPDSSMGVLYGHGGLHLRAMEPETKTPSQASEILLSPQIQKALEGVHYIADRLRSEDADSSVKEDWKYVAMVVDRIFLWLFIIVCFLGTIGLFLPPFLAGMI
Sequence of rat α2β4 nAChR (P12392 21-495 limits assumed): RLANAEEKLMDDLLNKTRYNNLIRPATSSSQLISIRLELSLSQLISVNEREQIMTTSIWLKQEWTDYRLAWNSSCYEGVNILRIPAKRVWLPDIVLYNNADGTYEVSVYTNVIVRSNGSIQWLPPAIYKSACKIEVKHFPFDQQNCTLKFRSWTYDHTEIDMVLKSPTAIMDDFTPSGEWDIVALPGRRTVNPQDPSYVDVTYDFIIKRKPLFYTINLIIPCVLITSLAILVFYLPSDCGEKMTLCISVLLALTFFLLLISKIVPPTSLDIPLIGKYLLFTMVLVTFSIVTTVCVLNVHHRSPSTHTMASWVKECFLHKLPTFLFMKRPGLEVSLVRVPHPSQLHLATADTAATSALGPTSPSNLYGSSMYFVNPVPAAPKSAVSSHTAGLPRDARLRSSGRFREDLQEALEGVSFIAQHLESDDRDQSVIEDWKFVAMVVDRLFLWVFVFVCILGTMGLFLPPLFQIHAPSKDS

rat α4β4 nAChR = rat α4β4 nAChR (Rattus norvegicus, UniProt P09483+P12392); format: cell-based
rat α2β2 nAChR = rat α2β2 nAChR (Rattus norvegicus, UniProt P12389+P12390); format: cell-based
Sequence of rat α2β2 nAChR (P12389 28-511 limits assumed): as the sequence (P12389 28-511 limits assumed) above
Sequence of rat α2β2 nAChR (P12390 25-500 limits assumed): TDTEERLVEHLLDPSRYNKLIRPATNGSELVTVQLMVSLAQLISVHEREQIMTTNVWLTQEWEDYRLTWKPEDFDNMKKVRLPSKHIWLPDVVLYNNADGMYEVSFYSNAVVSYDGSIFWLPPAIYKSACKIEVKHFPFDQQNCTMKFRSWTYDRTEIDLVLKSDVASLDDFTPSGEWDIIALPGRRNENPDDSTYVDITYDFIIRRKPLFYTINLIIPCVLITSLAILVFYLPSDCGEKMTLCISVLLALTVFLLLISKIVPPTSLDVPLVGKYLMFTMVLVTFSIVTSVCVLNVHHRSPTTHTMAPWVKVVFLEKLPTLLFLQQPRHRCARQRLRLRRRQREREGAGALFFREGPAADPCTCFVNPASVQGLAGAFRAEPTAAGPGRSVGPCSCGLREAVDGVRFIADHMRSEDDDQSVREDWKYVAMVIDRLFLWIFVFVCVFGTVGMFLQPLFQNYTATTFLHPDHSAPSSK

rat α7 nAChR = rat α7 nAChR (Rattus norvegicus, UniProt Q05941); format: cell-based
Sequence of rat α7 nAChR (Q05941 23-502 limits assumed): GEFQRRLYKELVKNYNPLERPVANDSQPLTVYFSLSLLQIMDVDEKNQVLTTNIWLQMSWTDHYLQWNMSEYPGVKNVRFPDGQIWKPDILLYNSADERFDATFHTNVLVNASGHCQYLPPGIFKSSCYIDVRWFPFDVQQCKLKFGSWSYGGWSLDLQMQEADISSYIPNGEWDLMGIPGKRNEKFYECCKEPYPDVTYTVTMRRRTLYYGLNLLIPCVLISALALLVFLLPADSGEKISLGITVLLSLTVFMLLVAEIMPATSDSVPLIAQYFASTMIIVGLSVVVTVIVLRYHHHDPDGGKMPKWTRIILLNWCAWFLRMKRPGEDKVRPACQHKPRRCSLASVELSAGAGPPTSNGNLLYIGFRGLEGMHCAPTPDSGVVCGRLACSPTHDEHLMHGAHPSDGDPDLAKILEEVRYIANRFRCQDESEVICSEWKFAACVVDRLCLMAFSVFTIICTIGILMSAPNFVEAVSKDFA

rat α3β2 nAChR = rat α3β2 nAChR (Rattus norvegicus, UniProt P04757+P12390)
Sequence of rat α3β2 nAChR (P04757 26-499 limits assumed): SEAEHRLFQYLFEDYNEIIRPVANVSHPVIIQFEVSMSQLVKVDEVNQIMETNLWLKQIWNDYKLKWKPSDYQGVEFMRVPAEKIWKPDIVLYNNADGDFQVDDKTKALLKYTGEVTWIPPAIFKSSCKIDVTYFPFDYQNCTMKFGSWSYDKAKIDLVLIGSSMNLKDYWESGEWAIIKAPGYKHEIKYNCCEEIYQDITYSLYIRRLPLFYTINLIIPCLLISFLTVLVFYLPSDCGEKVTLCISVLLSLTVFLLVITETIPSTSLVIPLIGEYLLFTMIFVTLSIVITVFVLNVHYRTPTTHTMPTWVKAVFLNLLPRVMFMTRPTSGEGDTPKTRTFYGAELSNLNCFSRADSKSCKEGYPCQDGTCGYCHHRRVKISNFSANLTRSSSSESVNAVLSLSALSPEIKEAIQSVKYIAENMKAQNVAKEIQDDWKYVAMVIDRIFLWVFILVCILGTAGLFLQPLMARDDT
Sequence of rat α3β2 nAChR (P12390 25-500 limits assumed): as the sequence (P12390 25-500 limits assumed) above

rat α4β2 nAChR = rat α4β2 nAChR (Rattus norvegicus, UniProt P09483+P12390); format: cell-based

Sequence of rat α6/α3β2β3 nAChR (P04757 whole entry, looked up): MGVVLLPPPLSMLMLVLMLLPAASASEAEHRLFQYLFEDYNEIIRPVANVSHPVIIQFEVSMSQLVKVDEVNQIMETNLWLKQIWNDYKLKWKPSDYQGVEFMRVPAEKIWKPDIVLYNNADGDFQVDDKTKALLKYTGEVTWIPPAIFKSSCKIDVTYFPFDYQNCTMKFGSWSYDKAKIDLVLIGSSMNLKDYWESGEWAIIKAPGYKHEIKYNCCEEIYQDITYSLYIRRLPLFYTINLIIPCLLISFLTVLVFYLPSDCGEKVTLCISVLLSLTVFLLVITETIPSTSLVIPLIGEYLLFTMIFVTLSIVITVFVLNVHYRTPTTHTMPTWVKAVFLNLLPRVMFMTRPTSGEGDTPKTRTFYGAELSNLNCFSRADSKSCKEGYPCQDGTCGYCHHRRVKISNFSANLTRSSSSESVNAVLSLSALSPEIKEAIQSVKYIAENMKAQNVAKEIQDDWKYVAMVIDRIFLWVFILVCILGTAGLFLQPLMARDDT
Sequence of rat α6/α3β2β3 nAChR (P12390 whole entry, looked up): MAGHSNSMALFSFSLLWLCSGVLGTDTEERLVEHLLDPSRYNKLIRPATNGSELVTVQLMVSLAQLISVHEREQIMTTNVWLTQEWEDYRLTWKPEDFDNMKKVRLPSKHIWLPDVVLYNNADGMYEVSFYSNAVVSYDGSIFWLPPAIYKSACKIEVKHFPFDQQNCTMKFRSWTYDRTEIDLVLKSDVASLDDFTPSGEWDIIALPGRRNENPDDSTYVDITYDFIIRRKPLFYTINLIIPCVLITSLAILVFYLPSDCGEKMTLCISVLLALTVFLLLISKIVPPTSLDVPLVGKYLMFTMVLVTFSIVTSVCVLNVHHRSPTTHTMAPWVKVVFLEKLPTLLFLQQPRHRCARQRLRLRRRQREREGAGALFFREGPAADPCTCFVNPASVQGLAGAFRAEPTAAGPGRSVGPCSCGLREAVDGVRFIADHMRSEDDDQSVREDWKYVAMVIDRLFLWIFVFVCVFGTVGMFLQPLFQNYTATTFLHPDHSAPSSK
Sequence of rat α6/α3β2β3 nAChR (P12391 whole entry, looked up): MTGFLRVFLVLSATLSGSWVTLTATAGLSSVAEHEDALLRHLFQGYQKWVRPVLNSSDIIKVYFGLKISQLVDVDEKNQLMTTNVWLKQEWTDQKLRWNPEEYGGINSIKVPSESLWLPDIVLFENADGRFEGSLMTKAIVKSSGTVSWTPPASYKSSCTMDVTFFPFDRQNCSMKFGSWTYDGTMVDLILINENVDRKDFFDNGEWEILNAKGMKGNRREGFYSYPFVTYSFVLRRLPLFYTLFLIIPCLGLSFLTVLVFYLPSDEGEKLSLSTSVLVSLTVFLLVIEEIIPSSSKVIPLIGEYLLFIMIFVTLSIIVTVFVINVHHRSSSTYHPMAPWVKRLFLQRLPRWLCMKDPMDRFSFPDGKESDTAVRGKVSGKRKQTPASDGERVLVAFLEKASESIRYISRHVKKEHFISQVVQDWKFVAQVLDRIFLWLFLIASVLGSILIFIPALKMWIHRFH
Sequence of rat α6/α3β2β3 nAChR (P43143 whole entry, looked up): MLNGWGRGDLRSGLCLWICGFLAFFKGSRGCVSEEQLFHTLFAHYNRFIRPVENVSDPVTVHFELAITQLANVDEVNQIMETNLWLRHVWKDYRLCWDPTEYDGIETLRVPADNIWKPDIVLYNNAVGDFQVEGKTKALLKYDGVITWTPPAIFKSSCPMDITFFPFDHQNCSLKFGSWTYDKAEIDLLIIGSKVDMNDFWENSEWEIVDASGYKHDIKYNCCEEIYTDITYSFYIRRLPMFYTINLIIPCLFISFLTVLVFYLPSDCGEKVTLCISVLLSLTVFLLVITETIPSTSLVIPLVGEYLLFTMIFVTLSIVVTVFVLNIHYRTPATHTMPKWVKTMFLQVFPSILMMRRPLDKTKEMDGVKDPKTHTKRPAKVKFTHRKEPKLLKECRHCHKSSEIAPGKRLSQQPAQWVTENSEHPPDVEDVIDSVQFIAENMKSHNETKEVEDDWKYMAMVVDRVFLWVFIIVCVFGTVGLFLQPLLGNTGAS
Sequence of rat α3β4 nAChR (P04757 26-499 limits assumed): as the sequence (P04757 26-499 limits assumed) above
Sequence of rat α3β4 nAChR (P12392 21-495 limits assumed): as the sequence (P12392 21-495 limits assumed) above

Compound `CC(C)C[C@@H]1NC(=O)[C@H](CC(=O)O)NC(=O)[C@H](CO)NC(=O)[C@H](Cc2c[nH]cn2)NC(=O)[C@H](CCC(N)=O)NC(=O)[C@H](C(C)C)NC(=O)[C@H](CCC(N)=O)NC(=O)[C@@H]2CSSC[C@H](NC(=O)[C@@H](NC(=O)[C@H](CC(=O)O)NC(=O)[C@H](C)NC(=O)CNC(=O)[C@H](CO)NC(=O)[C@H](C)N)[C@@H](C)O)C(=O)N[C@@H](CSSC[C@@H](C(=O)O)NC1=O)C(=O)N[C@@H](CO)C(=O)N[C@@H](CC(N)=O)C(=O)N1CCC[C@H]1C(=O)N[C@@H](C)C(=O)N2` [CIC] (H-ASGADTCCSNPACQVQHSDLC-OH; disulfide 7-13, 8-21) has an IC50 (rat α3β4 nAChR) greater than 10 µM, an IC50 (rat α6/α3β2β3 nAChR) of 1030 nM and an IC50 (human α9α10 nAChR) greater than 10 µM. It also gave an IC50 (rat α2β4 nAChR) greater than 10 µM, an IC50 (rat α4β4 nAChR) greater than 10 µM and an IC50 (rat α2β2 nAChR) greater than 10 µM. For the same compound, the IC50 (rat α7 nAChR) was greater than 10 µM, the IC50 (rat α3β2 nAChR) was 3.51 µM and the IC50 (rat α4β2 nAChR) was greater than 10 µM.
